Assay results taken from PMC12114619, “Nifuroxazide and 4-Hydroxybenzhydrazone Derivatives as New Antiparasitic (Trypanosoma cruzi and Leishmania mexicana) and Anti-Mycobacterium tuberculosis Agents” (Pharmaceutics, 2025).
Converted amounts (≈) assume the structure as drawn. “And” between values parts separate entries of the source, which are not always exact repeats. Equal values may be shown once. Read-outs that look alike come from different tables or passages of the source.

Columns and labels:
[1] = system: T. cruzi NINOA (MHOM/MX/1994/NINOA) strain epimastigotes; assay: Trypanocidal activity, T. cruzi epimastigotes, NINOA strain (resazurin); format: cell-based, Trypanosoma cruzi; conditions: 48 h
[2] = system: T. cruzi strain A1 epimastigotes; assay: Trypanocidal activity, T. cruzi epimastigotes, A1 strain (resazurin); format: cell-based, Trypanosoma cruzi; conditions: 48 h
[3] = system: M. tuberculosis H37Rv (ATCC 27294); assay: Anti-Mycobacterium activity, microplate Alamar Blue Assay (MABA); format: cell-based, Mycobacterium tuberculosis; conditions: H37Rv strain, minimum concentration achieving 90% inhibition; for MIC: Mycobacterium tuberculosis
Procedure: The reference strain H37Rv (ATCC 27294) of M. tuberculosis was utilized to assess anti-M. tuberculosis activity using the microplate Alamar Blue Assay (MABA), as previously reported. Samples underwent evaluation in triplicate independent experiments. Isoniazid, rifampicin, moxifloxacin, and linezolid were included as reference drugs, and the minimum drug concentration that achieved 90% inhibition was recorded as the minimum inhibitory concentration (MIC).

[4] = system: L. mexicana MHOM/MX/2017/UABJO17FCQEPS promastigotes; assay: Leishmanicidal activity, L. mexicana promastigotes, FCQEPS isolate (MTT); format: cell-based, Leishmania mexicana; conditions: 48 h, FCQEPS strain
Procedure: (§1) For leishmanicidal assays, the reference strain (MNYC/BZ/62/M379) and the isolate (MHOM/MX/2017/UABJO17FCQEPS) of L. mexicana were used. Promastigotes were cultured in RPMI 1640 medium supplemented with 10% FBS, 100 U/mL penicillin-100 […] streptomycin, and glutamine (2 mM). 100 µL parasites (5 × 10^5/mL) were added in a 96-well plate, and 100 µL of appropriate concentrations (0.78 to 200 µM) of each sample dissolved in DMSO and incubated for 48 h at 26 °C. Wells containing promastigotes with DMSO 0.2% were used as a negative control, and the reference drug glucantime was included as the positive control. The 3-(4,5-Dimethylthiazol-2-yl)-2,5-diphenyltetrazolium bromide (MTT) was used to measure metabolic activity. The IC50 values were calculated with the probit statistical tool. All samples were evaluated in triplicate in three independent experiments.

[5] = system: L. mexicana MNYC/BZ/62/M379 promastigotes; assay: Leishmanicidal activity, L. mexicana promastigotes, M379 strain (MTT); format: cell-based, Leishmania mexicana; conditions: 48 h
Procedure: as §1

[6] = Cytotoxicity on macrophages (MTT); format: cell-based, mouse; conditions: mouse
Procedure: Cytotoxicity was assessed on J774.2 mouse macrophage cells (ATCC® TIB-67, ATCC, Manassas, VA, USA). Cells were cultured in RPMI medium supplemented with 10% SFB, 100 U µg/mL penicillin-100 mg/mL streptomycin, and glutamine (2 mM) at 37 °C and in a 5% CO2 atmosphere. A known concentration of cells (1 × 10^6/mL) was incubated with the compounds at different concentrations (0.78 to 200 µM) for 48 h at 37 °C in a CO2 atmosphere (5%). Wells containing cells treated with 0.2% DMSO were used as a negative control. MTT was employed to evaluate the metabolic activity. Next, the cell viability was calculated (%), and the cytotoxic concentration (CC50) was determined with probit analysis. All samples were evaluated in triplicate in three independent experiments.

[7] = Cytotoxicity (CC50) Macrophages J774.2

SMILES	IC50 ([1]; listed as Bzn) [µM]	IC50 ([1]; Trypanosoma cruzi) [µM]	IC50 [2] [µM]	IC50 ([2]; Trypanosoma cruzi) [µM]	MIC [3] [µg/mL]	IC50 ([4]; Leishmania mexicana) [µM]	MABA MIC [3] [µg/mL]	IC50 L. mexicana M379 [5]	IC50 ([5]; Leishmania mexicana) [µM]	CC50 at 48 h ([6]; J774.2 macrophage cells, J774.2 macrophages, 48 h, MTT, read-out: Cytotoxicity (CC50) Macrophages J774.2) [µM]	IC50 [4] [µM]	CC50 at 48 h [6, 7] [µM]	IC50 [1] [µM]	IC50 [5]	IC50 T. cruzi NINOA [1]	IC50 T. cruzi A1 [2]	IC50 ([1]; listed as Nfx) [µM]
O=C(Cn1ccnc1[N+](=O)[O-])NCc1ccccc1 [Benznidazole, reference compound]	30	> 30	39.1 ± 0.7	39	–	–	–	–	–	–	–	–	–	–	–	–	–
NNC(=O)c1ccncc1 [Isoniazid, reference compound]	–	–	–	–	0.039 (≈ 0.284 µM)	–	–	–	–	–	–	–	–	–	–	–	–
CC(=O)NC[C@H]1CN(c2ccc(N3CCOCC3)c(F)c2)C(=O)O1 [Linezolid, reference compound]	–	–	–	–	0.33 (≈ 0.978 µM)	–	–	–	–	–	–	–	–	–	–	–	–
COc1c(N2C[C@@H]3CCCN[C@@H]3C2)c(F)cc2c(=O)c(C(=O)O)cn(C3CC3)c12 [Moxifloxacin, reference compound]	–	–	–	–	0.184 (≈ 0.458 µM)	–	–	–	–	–	–	–	–	–	–	–	–
O=C(N/N=C/c1ccc([N+](=O)[O-])o1)c1ccc(O)cc1 [Nfz, Nifuroxazide]	–	36 ± 1.2	10.4 ± 1.6	10.4	< 20	51.2 ± 4.2	12.3	no leishmanicidal effects	> 200	42.2 ± 2.3	–	–	–	–	–	–	–
O=C(N/N=C/c1ccc([N+](=O)[O-])s1)c1ccc(O)cc1 [Nfz-1]	–	11.9	14 ± 1.9	< 15	–	< 40	–	no leishmanicidal effects	> 200	–	32.9 ± 7	43.3 ± 2.7	11.9 ± 3.2	–	–	–	–
O=C(N/N=C/c1ccc(Br)s1)c1ccc(O)cc1 [Nfz-2]	–	4.7	–	> 100	< 20	98.8 ± 5.2	18.8	no leishmanicidal effects	> 200	–	–	95.5 ± 4.2	4.77 ± 5.6	–	–	–	–
O=C(N/N=C/c1cccs1)c1ccc(O)cc1 [Nfz-3]	–	> 50	20 ± 1.9	19.9	> 100	49.8 ± 5	–	no leishmanicidal effects	> 200	–	–	–	51 ± 2.8	–	–	–	–
O=C(N/N=C/c1ccco1)c1ccc(O)cc1 [Nfz-4]	–	18.8	28.9 ± 3.4	28.8	> 100	> 200	–	–	83.9 ± 6.9	–	–	> 100	19 ± 2.1	–	–	–	–
Cn1cccc1/C=N/NC(=O)c1ccc(O)cc1 [Nfz-5]	–	> 100	78.5 ± 4.7	> 100	> 100	> 200	–	–	5.2	–	–	21.9 ± 4.4	–	5.25 ± 5.8 µM	inactivity	–	–
O=C(N/N=C/c1ccccc1)c1ccc(O)cc1 [Nfz-6]	–	> 100	74.4 ± 4.4	> 70	> 100	> 200	–	–	> 90	–	–	28.8 ± 1.5	–	94.22 ± 0.9 µM	inactive	–	–
Cc1ccc(/C=N/NC(=O)c2ccc(O)cc2)cc1 [Nfz-7]	–	26	75.2 ± 8.8	> 70	98.3 (≈ 387 µM)	103 ± 2.1	–	–	–	–	–	91.7 ± 5.1	26 ± 2.9	–	–	–	–
CCc1ccc(/C=N/NC(=O)c2ccc(O)cc2)cc1 [Nfz-8]	–	14.4	7.28 ± 2.2	7.2	79.4 (≈ 296 µM)	> 200	–	–	–	–	–	> 100	14.5 ± 4.4	–	–	–	–
O=C(N/N=C/c1ccc(O)cc1)c1ccc(O)cc1 [Nfz-9]	–	24.9 ± 3.2	–	> 100	94.1 (≈ 367 µM)	94.3 ± 5.9	–	–	–	–	–	82.7 ± 4.4	–	–	–	–	–
O=C(N/N=C/c1ccccc1O)c1ccc(O)cc1 [Nfz-10]	–	> 100	8.77 ± 1.6	8.7	< 50	> 200	47.6	–	> 50	–	–	> 100	–	66.7 ± 2.9 µM	–	–	–
COc1ccc(/C=N/NC(=O)c2ccc(O)cc2)cc1 [Nfz-11]	–	28.2	18.2 ± 1.4	18.1	> 100	> 200	–	–	> 200	–	–	46.6 ± 4.9	28.2 ± 1.4	–	–	–	–

SMILES	IC50 ([1]; listed as Bzn) [µM]	IC50 ([1]; Trypanosoma cruzi) [µM]	IC50 [2] [µM]	IC50 ([2]; Trypanosoma cruzi) [µM]	MIC [3] [µg/mL]	IC50 ([4]; Leishmania mexicana) [µM]	MABA MIC [3] [µg/mL]	IC50 L. mexicana M379 [5]	IC50 ([5]; Leishmania mexicana) [µM]	CC50 at 48 h ([6]; J774.2 macrophage cells, J774.2 macrophages, 48 h, MTT, read-out: Cytotoxicity (CC50) Macrophages J774.2) [µM]	IC50 [4] [µM]	CC50 at 48 h [6, 7] [µM]	IC50 [1] [µM]	IC50 [5]	IC50 T. cruzi NINOA [1]	IC50 T. cruzi A1 [2]	IC50 ([1]; listed as Nfx) [µM]
COc1ccccc1/C=N/NC(=O)c1ccc(O)cc1 [Nfz-12]	–	> 100	–	> 100	> 100	60.3 ± 4.7	–	–	< 20	–	–	76.5 ± 3.6	–	11.5 µM and 11.6 µM	inactivity	–	–
COc1cccc(/C=N/NC(=O)c2ccc(O)cc2)c1OC [Nfz-13]	–	> 60	–	> 100	158 (≈ 525 µM)	124.5 ± 1.1	–	–	162 ± 6.9	–	–	> 100	63.1 ± 1.4	–	–	–	–
COc1cc(/C=N/NC(=O)c2ccc(O)cc2)cc(OC)c1OC [Nfz-14]	–	28 ± 1.9	29.2 ± 4.4	29.2	> 200	10.2	–	–	> 200	–	10.3 ± 0.8	> 100	–	–	–	–	–
O=C(N/N=C/c1ccc(F)cc1)c1ccc(O)cc1 [Nfz-15]	–	> 100	32.6 ± 2.8	< 50	> 100	102 ± 2.7	–	–	~30	–	–	74 ± 3.4	–	35.1 ± 4.7 µM	loss of trypanocidal activity	–	–
O=C(N/N=C/c1ccc(Cl)cc1)c1ccc(O)cc1 [Nfz-16]	–	> 100	40.2 ± 2.7	< 50	< 50	78.1 ± 3.6	46.4	–	> 60	–	–	83.2 ± 3.2	–	67.5 ± 4 µM	loss of trypanocidal activity	–	–
O=C(N/N=C/c1ccc(Br)cc1)c1ccc(O)cc1 [Nfz-17]	–	> 100	33.6 ± 3.9	< 50	< 50	52.1 ± 4.8	43.6	–	> 60	–	–	> 100	–	62 ± 2.5 µM	loss of trypanocidal activity	–	–
O=C(N/N=C/c1ccccc1[N+](=O)[O-])c1ccc(O)cc1 [Nfz-19]	–	36.4	42.5 ± 6.7	42.4	> 100	> 200	–	–	> 100	–	–	> 100	36.5 ± 2.2	146.7 ± 0.7 µM	–	–	–
O=C(N/N=C/c1ccc2ccccc2c1)c1ccc(O)cc1 [Nfz-20]	–	> 100	24.5 ± 2	24.4	> 100	> 200	–	–	< 30	–	–	88.3 ± 3.9	–	28.4 ± 2.8 µM	loss of the activity	–	–
O=C(N/N=C/c1ccc2c(c1)OCCO2)c1ccc(O)cc1 [Nfz-21]	–	> 100	–	49 ± 2.1	68.7 (≈ 230 µM)	> 200	–	–	71.5 ± 4.9	–	–	> 100	–	–	loss of the activity	–	–
O=C(N/N=C/c1ccc(-c2ccccc2)cc1)c1ccc(O)cc1 [Nfz-22]	–	6.8	–	> 100	> 100	133 ± 1.4	–	–	> 200	–	–	43.5 ± 2.5	6.87 ± 1.2	–	–	–	–
O=C(N/N=C/c1cc2c(cc1[N+](=O)[O-])OCO2)c1ccc(O)cc1 [Nfz-23]	–	> 100	13.5 ± 3.4	13.5	> 100	> 200	–	–	< 20	–	–	68.9 ± 6.6	–	16 ± 2 µM	loss of the activity	–	–
CC(=O)Nc1ccc(/C=N/NC(=O)c2ccc(O)cc2)cc1 [Nfz-24]	–	–	22.2 ± 1.4	22.1	> 100	55.8 ± 3.5	–	–	54.1	–	–	> 100	–	54.2 ± 4 µM	–	–	–
COC(=O)c1ccc(/C=N/NC(=O)c2ccc(O)cc2)cc1 [Nfz-25]	–	> 100	–	> 100	< 50	> 200	45.9	–	32.5 ± 6.1	–	–	> 100	–	–	no activity	inactive	–
CC1CS(=O)(=O)CCN1/N=C/c1ccc([N+](=O)[O-])o1 (centres unmarked) [Nifurtimox, reference compound]	–	> 7	–	19.3 ± 0.8	–	–	–	–	–	–	–	–	7.09 ± 0.2	–	–	–	7
CO[C@H]1/C=C/O[C@@]2(C)Oc3c(C)c(O)c4c(O)c(c(/C=N/N5CCN(C)CC5)c(O)c4c3C2=O)NC(=O)/C(C)=C\C=C\[C@H](C)[C@H](O)[C@@H](C)[C@@H](O)[C@@H](C)[C@H](OC(C)=O)[C@@H]1C [Rifampin, reference compound]	–	–	–	–	0.074 (≈ 0.0899 µM)	–	–	–	–	–	–	–	–	–	–	–	–
